The values below come from BindingDB's records for doi:10.1111/cbdd.12867 (Jishou University, 2017).

Chain of Alpha-glucosidase MAL32 (P38158 whole entry): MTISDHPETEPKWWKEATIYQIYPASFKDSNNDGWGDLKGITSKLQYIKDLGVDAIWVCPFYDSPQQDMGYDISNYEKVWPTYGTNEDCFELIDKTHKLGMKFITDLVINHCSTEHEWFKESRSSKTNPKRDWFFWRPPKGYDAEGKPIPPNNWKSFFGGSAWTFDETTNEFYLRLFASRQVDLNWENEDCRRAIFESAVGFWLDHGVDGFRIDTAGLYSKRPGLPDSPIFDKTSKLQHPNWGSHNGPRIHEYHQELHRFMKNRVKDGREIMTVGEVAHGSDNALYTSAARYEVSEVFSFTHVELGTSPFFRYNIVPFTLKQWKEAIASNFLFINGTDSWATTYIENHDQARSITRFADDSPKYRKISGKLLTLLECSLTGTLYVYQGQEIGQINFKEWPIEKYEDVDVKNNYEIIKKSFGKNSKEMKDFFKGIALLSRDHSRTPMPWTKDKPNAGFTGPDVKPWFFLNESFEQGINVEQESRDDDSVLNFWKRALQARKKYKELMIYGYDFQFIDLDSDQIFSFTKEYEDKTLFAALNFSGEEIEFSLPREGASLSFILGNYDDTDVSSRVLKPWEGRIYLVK

For this assay, the target named is Alpha-glucosidase MAL32 (Saccharomyces cerevisiae (strain ATCC 204508 / S288c), UniProt P38158). Put plainly: In Vitro α-Glucosidase Inhibitory Assay. The settings on record: pH 6.8. On the procedure:
The test compounds were dissolved in DMSO to prepare the required distributing concentration. α-Glucosidase inhibitory activity was assayed using 0.1 m phosphate buffer (pH 6.8) at 37°C. The enzyme (0.1 U/ml) in phosphate-buffered saline was incubated with various concentrations of test compounds at 37°C for 15 min. Then, 1.25 mm p-nitrophenyl α-D-glucopyranoside was added to the mixture as a substrate.After further incubation at 37°C for 30 min, the absorbance was measured spectrophotometrically at 405 nm. The sample solution was replaced by DMSO as a control. Acarbose was used as a positive control. All experiments were carried out in triplicates.
For `O=C(COc1ccc2ccc(=O)oc2c1)N/N=C1\C(=O)Nc2ccccc21` [(Z)-2-((2-oxo-2H-chromen-7-yl)oxy)-N'-(2-oxoindolin-3-ylidene)acetohydrazide (5a)], the IC50 was determined as 187 µM.

In turn, `O=C(COc1ccc2ccc(=O)oc2c1)N/N=C1\C(=O)N(Cc2ccccc2Cl)c2ccccc21` [(Z)-N'-(1-(2-chlorobenzyl)-2-oxoindolin-3-ylidene)-2-((2-oxo-2H-chromen-7-yl)oxy)acetohydrazide (5l)] came in with an IC50 of 7.31 µM.

Consider `O=C(COc1ccc2ccc(=O)oc2c1)N/N=C1\C(=O)N(Cc2ccccc2F)c2ccccc21` [(Z)-N'-(1-(2-fluorobenzyl)-2-oxoindolin-3-ylidene)-2-((2-oxo-2H-chromen-7-yl)oxy)acetohydrazide (5j)], for which the IC50 was 7.37 µM.

`Cc1ccc2c(c1)/C(=N/NC(=O)COc1ccc3ccc(=O)oc3c1)C(=O)N2Cc1ccccc1F` [(Z)-N'-(1-(2-fluorobenzyl)-5-methyl-2-oxoindolin-3-ylidene)-2-((2-oxo-2H-chromen-7-yl)oxy)acetohydrazide (5n)] returned a half-maximal inhibitory concentration (IC50) of 66.8 µM.

`O=C(COc1ccc2ccc(=O)oc2c1)N/N=C1\C(=O)N(Cc2cccc(F)c2)c2ccccc21` [(Z)-N'-(1-(3-fluorobenzyl)-2-oxoindolin-3-ylidene)-2-((2-oxo-2H-chromen-7-yl)oxy)acetohydrazide (5k)] displayed an IC50 of 9.33 µM. Against the preceding compound, the IC50 is about 7.2-fold lower.

`Cc1ccc2c(c1)/C(=N/NC(=O)COc1ccc3ccc(=O)oc3c1)C(=O)N2Cc1cccc(F)c1` [(Z)-N'-(1-(3-fluorobenzyl)-5-methyl-2-oxoindolin-3-ylidene)-2-((2-oxo-2H-chromen-7-yl)oxy)acetohydrazide (5o)] yielded an IC50 of 77.8 µM.

Compound `O=C(COc1ccc2ccc(=O)oc2c1)N/N=C1\C(=O)N(Cc2ccc(Br)cc2)c2ccccc21` [(Z)-N'-(1-(4-bromobenzyl)-2-oxoindolin-3-ylidene)-2-((2-oxo-2H-chromen-7-yl)oxy)acetohydrazide (5m)] yielded an IC50 of 4.07 µM.

Regarding `O=C(COc1ccc2ccc(=O)oc2c1)N/N=C1\C(=O)N(Cc2ccccc2)c2ccccc21` [(Z)-N'-(1-benzyl-2-oxoindolin-3-ylidene)-2-((2-oxo-2H-chromen-7-yl)oxy)acetohydrazide (5i)], it took 14.1 µM to reach half-maximal inhibition (IC50). This IC50 lies about 3.5-fold higher than the previous one.

`O=C(COc1ccc2ccc(=O)oc2c1)N/N=C1\C(=O)N(Cc2ccccc2)c2ccc(Br)cc21` [(Z)-N'-(1-benzyl-5-bromo-2-oxoindolin-3-ylidene)-2-((2-oxo-2H-chromen-7-yl)oxy)acetohydrazide (5r)] showed an IC50 of 4.48 µM.

The compound `CN1C(=O)/C(=N\NC(=O)COc2ccc3ccc(=O)oc3c2)c2ccccc21` [(Z)-N'-(1-methyl-2-oxoindolin-3-ylidene)-2-((2-oxo-2H-chromen-7-yl)oxy)acetohydrazide (5h)] came in with an IC50 of 269 µM.

Take `Cc1cc(C)c2c(c1)/C(=N/NC(=O)COc1ccc3ccc(=O)oc3c1)C(=O)N2` [(Z)-N'-(5,7-dimethyl-2-oxoindolin-3-ylidene)-2-((2-oxo-2H-chromen-7-yl)oxy)acetohydrazide (5c)]: the IC50 was 197 µM.

Compound `O=C(COc1ccc2ccc(=O)oc2c1)N/N=C1\C(=O)N(Cc2ccccc2Cl)c2ccc(Br)cc21` [(Z)-N'-(5-bromo-1-(2-chlorobenzyl)-2-oxoindolin-3-ylidene)-2-((2-oxo-2H-chromen-7-yl)oxy)acetohydrazide (5s)] came in with an IC50 of 2.85 µM.

Take `O=C(COc1ccc2ccc(=O)oc2c1)N/N=C1\C(=O)N(Cc2ccc(Br)cc2)c2ccc(Br)cc21` [(Z)-N'-(5-bromo-1-(4-bromobenzyl)-2-oxoindolin-3-ylidene)-2-((2-oxo-2H-chromen-7-yl)oxy)acetohydrazide (5t)]: inhibition was half-maximal at 3.98 µM (IC50). This IC50 and that of the compound before are within 1.5-fold of each other.

Turning to `O=C(COc1ccc2ccc(=O)oc2c1)N/N=C1\C(=O)Nc2ccc(Br)cc21` [(Z)-N'-(5-bromo-2-oxoindolin-3-ylidene)-2-((2-oxo-2H-chromen-7-yl)oxy)acetohydrazide (5f)], it took 14.2 µM to reach half-maximal inhibition (IC50).

`O=C(COc1ccc2ccc(=O)oc2c1)N/N=C1\C(=O)N(Cc2ccccc2F)c2ccc(Cl)cc21` [(Z)-N'-(5-chloro-1-(2-fluorobenzyl)-2-oxoindolin-3-ylidene)-2-((2-oxo-2H-chromen-7-yl)oxy)acetohydrazide (5p)] registered an IC50 of 2.56 µM.

For the compound `O=C(COc1ccc2ccc(=O)oc2c1)N/N=C1\C(=O)N(Cc2cccc(F)c2)c2ccc(Cl)cc21` [(Z)-N'-(5-chloro-1-(3-fluorobenzyl)-2-oxoindolin-3-ylidene)-2-((2-oxo-2H-chromen-7-yl)oxy)acetohydrazide (5q)], the IC50 came to 2.88 µM.

Consider `O=C(COc1ccc2ccc(=O)oc2c1)N/N=C1\C(=O)Nc2ccc(Cl)cc21` [(Z)-N'-(5-chloro-2-oxoindolin-3-ylidene)-2-((2-oxo-2H-chromen-7-yl)oxy)acetohydrazide (5e)], for which 153 µM corresponded to half-maximal inhibition (IC50). This IC50 is about 53-fold higher than that of the compound before.

`O=C(COc1ccc2ccc(=O)oc2c1)N/N=C1\C(=O)Nc2ccc(F)cc21` [(Z)-N'-(5-fluoro-2-oxoindolin-3-ylidene)-2-((2-oxo-2H-chromen-7-yl)oxy)acetohydrazide (5d)] yielded an IC50 of 12 µM.

Consider `Cc1ccc2c(c1)/C(=N/NC(=O)COc1ccc3ccc(=O)oc3c1)C(=O)N2` [(Z)-N'-(5-methyl-2-oxoindolin-3-ylidene)-2-((2-oxo-2H-chromen-7-yl)oxy)acetohydrazide (5b)], for which 114 µM corresponded to half-maximal inhibition (IC50). This IC50 is about 9.5-fold higher than that of the compound before.

On to `O=C(COc1ccc2ccc(=O)oc2c1)N/N=C1\C(=O)Nc2ccc([N+](=O)[O-])cc21` [(Z)-N'-(5-nitro-2-oxoindolin-3-ylidene)-2-((2-oxo-2H-chromen-7-yl)oxy)acetohydrazide (5g)], for which the IC50 amounted to 9.47 µM.

As a reminder, the IC50 is the concentration at which inhibition is half-maximal. The low end stands for greater potency, the high end for weaker potency.
